Legend:
[1] = Pharmacokinetics test with rats (intravenous and subcutaneous administration); settings: rat
Procedure: PBS solution was prepared by dissolving 1 tablet of Phosphate buffered saline (P4417 from Sigma) in 200 mL of ultrapure water.
0.2 mL of the collected blood was promptly mixed with 0.2 mL of the aprotinin-containing EDTA-PBS solution prepared in the above 68-1, and left on ice for 30 minutes or more. […] As blank plasma, plasma obtained by similarly treating the blood collected from untreated rat cervical vein was employed. Plasma samples were frozen in storage until employed for measurement. […] The standard solution for creating a standard curve was prepared as follows. First, the blank plasma obtained in the above 68-2 was diluted with the assay buffer supplied in the EIA kit similarly to the plasma sample, and this was used as the assay buffer for standard solution preparation (for example, when diluting the plasma sample to 100-fold, 1/100 amount of blank plasma was added to the assay buffer supplied in the EIA kit, and this was used as the assay buffer for standard solution preparation). […] Moreover, the predicted initial concentration (C0) was determined by the extrapolation method for intravenous administration, t1/2 and MRT were calculated, and the maximum plasma concentration (Cmax) was determined from the actual value for subcutaneous administration.
Moreover, the parameters obtained were employed to calculate bioavailability from the following mathematical formula. […]

amylase, LDH, CPK = assay: Gastrointestinal obstruction model, blood parameters (amylase, LDH, CPK); settings: Table 10; rat gastrointestinal obstruction model
Procedure: This experimental line was carried out as a test line to evaluate the promotion of intestinal fluid absorption or the secretory suppressing action, using the change in the intestinal fluid weight in the jejunum after bowel obstruction as an indicator. Moreover, blood parameters of deviation enzymes amylase (pancreas), lactate dehydrogenase (LDH, liver), and creatine phosphokinase (CPK, skeletal muscle, cardiac muscle etc.) were measured as indicators of tissue disorders.
Anesthesia was introduced with inhalation of 2% isoflurane and laughing gas:oxygen=7:3, and this was maintained throughout the surgery. A median incision was made in the abdomen, and the jejunum at about 10 cm from the musculus suspensorius duodeni was ligated with a surgical suture. Then, the incision site was promptly sutured, and the rats were fasted until compound administration. […]
One hour after compound administration, a median incision was made in the abdomen under inhalation anesthesia, and 1.5 mL of blood was collected from the abdominal vena cava. […] The fluid and blood on the jejunum surface were removed with a paper towel, nerves, blood vessels, and fat attached to the jejunum was removed, this was cut into 6 cm lengths, and wet weight was measured. This was then dried at 36 degrees for 24 hours, and dry weight was measured. […]

C[C@H](N)C(=O)NCC(=O)N[C@H]1CSSC[C@@H](C(=O)O)NC(=O)[C@H](CO)NC(=O)[C@H]([C@@H](C)O)NC(=O)[C@H](Cc2ccccc2)NC(=O)[C@H]([C@@H](C)O)NC(=O)[C@H](CCCCN)NC(=O)[C@H](Cc2c[nH]c3ccccc23)NC(=O)[C@H](Cc2ccccc2)NC(=O)[C@H](Cc2ccccc2)NC(=O)[C@H](CC(N)=O)NC(=O)[C@H](CCCCN)NC1=O [SRIF14]
C0, intravenous administration ([1]; Table 5D, no unit at the table (Table 4: nM), extrapolation): 819 | C0, intravenous administration ([1]; Tables 5B-5F, no unit printed in these tables (Table 5A footnote: nM)): 819

C[C@@H](O)[C@@H]1NC(=O)[C@H](CCCCN)NC(=O)[C@@H](Cc2c[nH]c3ccccc23)NC(=O)[C@H](Cc2ccccc2)NC(=O)[C@@H](NC(=O)[C@H](N)Cc2ccccc2)CSSC[C@@H](C(=O)N[C@H](CO)[C@@H](C)O)NC1=O [octreotide]
LDH activity compared to the vehicle (amylase, LDH, CPK): low value compared to the vehicle | amylase activity compared to the vehicle (amylase, LDH, CPK): equivalent to the vehicle
